Assay results: patent US20110217258A1, “Combined Use of Bendamustine, Doxorubicin and Bortezomib for the Treatment of Multiple Myeloma” (Indiana University Research and Technology Corporation, priority 2008, published 2011)

System: H929 and MM1R myeloma cell lines
Experiment: MTS cellular cytotoxicity assay, single agent
Format: cell-based
Description: H929 and MM1R myeloma cell lines were cultured in vitro and cellular cytotoxicity was measured by MTS ([3-(4,5-dimethylthiazol-2-yl)-5-(3-carboxymethoxyphenyl)-2-(4-sulfophenyl)-2H-tetrazolium, inner salt) assay. The effect of the combination in terms of additive, antagonistic, or synergistic activity was assessed by Valeriote and Lin's method (Valeriote and Lin, Cancer Chemother Rep 1975; 59:895-900). […] To test the effect of the combination of all three drugs, cells were cultured with bendamustine (15 μg/ml) and doxorubicin (0.03 μg/ml) for 48 hours, and bortezomib (2.5 nmol/L) was added in the last 24 hours, and cytotoxicity was assayed.

**Q.** Which CC50 (48 h, read-out: concentration lethal to 50% of cells (LC50)) does the source give for `Cl.Cn1c(CCCC(=O)O)nc2cc(N(CCCl)CCCl)ccc21` [bendamustine, 1H-benzimidazole-2-butanoic acid, 5-[bis(2-chloroethyl)amino]-1-methyl-, monohydrochloride] here?
**A.** Its CC50 is 34.9 ± 3.4 µg/mL.

**Q.** And the “MM cell death induced by drug alone” value (bendamustine alone, repeated experiments)?
**A.** The value was “time and dose-dependent”.
